Entries after “also recorded” stand apart in the source; their conditions may differ.
What was measured:
[1] = target: T1, binding of human NME7 to synthetic MUC1* peptide (Homo sapiens, UniProt P15941); experiment: ELISA: inhibition of NME7 binding to immobilized MUC1* peptide; conditions: free peptides
T1 construct: made in house; host or cells: E. coli
T1 sequence (P15941 1110-1154 limits assumed): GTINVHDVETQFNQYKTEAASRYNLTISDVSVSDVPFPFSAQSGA
Description: Those antibodies that inhibit cancer growth or transition to a more metastatic state are selected for use as anti-cancer therapeutics and may be administered to a patient for the treatment or prevention of cancers. Selected antibodies may be further optimized for example by engineering or making human chimera antibodies or fully human antibodies. […] We then generated antibodies using these peptides and then tested both the resultant antibodies as well as the immunizing peptides for their ability to: a) inhibit cancerous growth; and b) inhibit the induced transition from cancer cells to metastatic cancer cells. NME7 peptides were selected as immunizing agents for antibody production and as inhibitory agents themselves (FIG. 19 and Example 11). Peptides A1 (SEQ ID NO:141), A2 (SEQ ID NO:142), B1 (SEQ ID NO:143), B2 (SEQ ID NO:144) and B3 (SEQ ID NO:145), wherein A refers to the domain from which the peptide is derived, i.e. the NDPK A domain and the B denotes that the peptide is derived from the NDPK B domain (FIG. 15). Each peptide was used as an immunogen and injected into 2 rabbits each for production of polyclonal antibodies. The antibodies that were harvested from the blood of the immunized rabbits were purified over a column derivatized with the immunizing peptide. The purified antibodies were then tested for their ability to bind to human NME7. All of the resultant antibodies bound to human NME7 but not human NME1 as desired (FIG. 26A-B, Example 12). […] The antibodies were also tested for their ability to inhibit the binding of NME7 to a MUC1* extracellular domain peptide.
(§1) NME7 peptides were selected as immunizing agents for antibody production. NME7 peptides A1, A2, B1, B2 and B3 (FIG. 19) were chosen using a process of sequence alignment among human NME1, human NME7 and several bacterial NMEs that were homologous to human NME1 or human NME7. Five regions that had high sequence homology among all were identified. However, to prevent selecting peptides that would give rise to antibodies that would inhibit human NME1 as well as human NME7, we chose NME7 sequences that were adjacent to the homologous regions wherein those peptides had sequences that were different from human NME1. We did ELISA assays to see if the peptides on their own could bind to a synthetic MUC1* peptide on the surface and inhibit the binding of human NME7 or human NME1 to the immobilized peptide (FIG. 27).

[2] = target: T2, binding of human NME1 to synthetic MUC1* peptide (Homo sapiens, UniProt P15941); experiment: ELISA: inhibition of NME1 binding to immobilized MUC1* peptide; conditions: free peptides
T2 sequence (P15941 1110-1154 limits assumed): T1 sequence (P15941 1110-1154 limits assumed)
Description: as §1

T47D breast cancer cells [3] = experiment: Cancer cell growth inhibition by anti-NME7 specific antibodies and immunizing peptides (Example 13); assay type: cell-based, human; conditions: added separately; RPMI with serum
Experimental: Rabbits were immunized with NME7 peptides A1, A2, B1, B2, and B3 and antibodies were generated, collected and purified over a column to which the immunizing peptide had been conjugated. T47D breast cancer cells were plated and cultured according to ATCC protocols in RPMI media supplemented with serum. Immunizing peptides A1, A2, B1, B2, and B3, and the PSMGFR extracellular domain peptide of MUC1*, “FLR” here, were also added separately to growing T47D breast cancer cells. Taxol and the E6 anti-MUC1* Fab were added as controls. […] Note the comparison to inhibition using Taxol, which is a chemotherapy agent that kills healthy and cancer cells alike. Also, for comparison, a polyclonal antibody generated using a large stretch of NME7 from amino acid 100 to 376 is shown.
In a similar experiment, combinations of the antibodies generated from immunization with peptides A1, A2, B1, B2, and B3 as well as the peptides themselves were added to growing cancer cells at the concentrations indicated. […] In these two experiments, the cells were MUC1* positive breast cancer cells.

T47D breast cancer cells [4] = experiment: Inhibition of NME7-AB or 2i induced transition of cancer cells to metastatic cancer cells (floaters, RT-PCR); assay type: cell-based, human; conditions: for expression of metastasis marker CXCR4 (RT-PCR) / floater cells (change from adherent cells to floaters): cells grown in NME7-AB or 2i; for floater cells (change from adherent cells to floaters): visual observation; for inhibition of transition to a more metastatic state (RT-PCR CXCR4, CHD1, SOX2): peptides alone, transition induced by 2i inhibitors
Experimental: In one example, NME7-AB specific antibodies, generated by immunization with NME7-derived peptides A1, A2, B1, B2 and B3, as well as the immunizing peptides themselves, were added into the media along with either NME7-AB or 2i to determine if they inhibited the transformation of regular cancer cells to metastatic cancer stem cells. Antibodies and peptides were separately added along with the agent that causes metastatic transformation; in this case NME7-AB or the 2i inhibitors PD0325901 and CHIR99021. NME7-AB and 2i were separately used to induce the cancer cells to be transformed to a more aggressive metastatic state. 2i was used so that it could not be argued that the antibodies that were added to the media simply sopped up all of the NME7-AB so that the causative agent effectively was not there (Example 14).
Visual observation was independently recorded by two scientists as the experiment progressed (FIG. 30). […] The amount of mRNA, which indicates cell viability and growth, was measured. […] RT-PCR was used to measure expression levels of metastatic markers, including CXCR4.
In another experiment, the free peptides A1, A2, B1, B2 and B3 were added to cancer cells in culture that were undergoing transition to a more metastatic state by culturing in either NME7-AB or 2i.
In the first of these experiments, the antibodies generated by immunization with A1, A2, B1, B2 and B3 were tested for their ability to inhibit the metastatic transition induced by culture of T47D breast cancer cells in NME7-AB or in 2i inhibitors.
RT-PCR was used to measure expression levels of metastatic markers, including CXCR4. […] (See FIG. 31). […] Peptide B3 was especially effective as was antibody #61 that it generated. […] The amount of mRNA, which indicates cell viability and growth, was measured.

[5] = tested on: Human stem cells (iPS cat #SC101a-1); experiment: Human stem cell growth and pluripotency in NME7-AB or NM23-H1 dimers; assay type: cell-based; conditions: 8 nM in Minimal Stem Cell Media
Experimental: For testing recombinant NME7-AB for ability to maintain pluripotency and inhibit differentiation, a soluble variant of NME7, NME7-AB, was generated and purified. Human stem cells (iPS cat #SC101a-1, System Biosciences) were grown per the manufacturer's directions in 4 ng/ml bFGF over a layer of mouse fibroblast feeder cells for four passages. These source stem cells were then plated into 6-well cell culture plates (Vita™, Thermo Fisher) that had been coated with 12.5 ug/well of a monoclonal anti-MUC1* antibody, MN-C3. Cells were plated at a density of 300,000 cells per well. The base media was Minimal Stem Cell Media consisting of: 400 ml DME/F12/GlutaMAX I (Invitrogen #10565-018), 100 ml Knockout Serum Replacement (KO-SR, Invitrogen #10828-028), 5 ml 100×MEM Non-essential Amino Acid Solution (Invitrogen #11140-050) and 0.9 ml (0.1 mM) β-mercaptoethanol (55 mM stock, Invitrogen #21985-023). The base media can be any media. In a preferred embodiment, the base media is free of other growth factors and cytokines. To the base media was added either 8 nM of NME7-AB or 8 nM NM23-H1 refolded and purified as stable dimers. Media was changed every 48 hours and due to accelerated growth, had to be harvested and passaged at Day 3 post-plating.
Cell counts at the first harvest verified that culture in NME7 produced 1.4-times more cells than culture in NM23-H1 dimers.

| inhibition of binding of NME7 to immobilized MUC1* peptide [1] | inhibition of binding of NME1 to immobilized MUC1* peptide [2] | Substance | inhibition of cancer cell growth (T47D breast cancer cells [3]) | expression of metastasis marker CXCR4 (RT-PCR) (T47D breast cancer cells [4]) | floater cells (change from adherent cells to floaters) (T47D breast cancer cells [4]) | inhibition of transition to a more metastatic state (RT-PCR CXCR4, CHD1, SOX2) (T47D breast cancer cells [4]) | pluripotent stem cell growth / differentiation [5] |
| --- | --- | --- | --- | --- | --- | --- | --- |
| inhibited the binding | inhibited the binding | AIFGKTKIQNAVHCTDLPEDGLLEVQYFF (peptide B3) | potently inhibited the growth | inhibited the increase in expression | inhibited the morphological change | potently inhibit; also recorded: most inhibitory | – |
| inhibited the binding | inhibited the binding | DAGFEISAMQMFNMDRVNVE (peptide B1) | potently inhibited the growth | inhibited the increase in expression | inhibited the morphological change | potently inhibit | – |
| inhibited the binding | inhibited the binding | EVYKGVVTEYHDMVTE (peptide B2) | potently inhibited the growth | inhibited the increase in expression | inhibited the morphological change | potently inhibit | – |
| inhibited the binding | inhibited the binding | MLSRKEALDFHVDHQS (peptide A1) | potently inhibited the growth | inhibited the increase in expression | inhibited the morphological change | potently inhibit | – |
| – | – | NM23-H1 (NME1) dimers: NM23-H1 refolded and purified as stable dimers | – | – | – | – | no differentiation even when 100% confluent |
| inhibited the binding | inhibited the binding | SGVARTDASES (peptide A2) | potently inhibited the growth | inhibited the increase in expression | inhibited the morphological change | potently inhibit | – |

From patent publication US12479928B2, “Anti-cancer peptide” (Minerva Biotechnologies Corporation, priority 2014, dated 2025)
